According to US9261497B2, “Method of treating cancer with modulators of SCFSkp2” (New York University, priority 2012, dated 2016):

How the values were obtained:
Caspase 3 in ECC-1 cells = experiment: ECC-1 apoptosis (Caspase 3 cleavage immunoblot); type: cell-based, human; conditions: 10 μM, 18 h
Description: Whole cell lysates were prepared in ice cold RIPA buffer (50 mM Tris-HCL, 150 mM NaCl, 0.25% sodium deoxycholate, 1% NP-40 and 1 mM EDTA) containing 1 mM Na3VO4, pH 7.4) and 1× Protease Inhibitor Cocktail (Sigma Chem, St Louis, Mo.). Following freezing and thawing once, and soluble proteins obtained by centrifugation at 14,000×g for 10 min at 4° C. Protein concentrations were quantified (BCA kit, Thermo Scientific, Rockland, Ill.) and 20 μg protein in Laemmli buffer were subjected to SDS-PAGE (12.5% polyacrylamide) and immunoblotted using anti-p27 and anti-Skp2 antibodies to probe protein levels, as described (Lecanda et al., “TGFbeta Prevents Proteasomal Degradation of the Cyclin-dependent Kinase Inhibitor p27kip1 for Cell Cycle Arrest,” Cell Cycle 8:742-756 (2009), which is hereby incorporated by reference in its entirety). For subcellular fractionation, following treatments, cells were separated into nuclear and cytoplasmic fractions using the NE-PER kit (Thermo Scientific), and 10 μg cytoplasmic and nuclear protein fractions were loaded onto SDS-PAGE for immunoblotting. Following protein transfer onto nitrocellulose membranes, the membrane was blocked with 5% non-fat dry milk in TBS containing 0.1% Tween 20 (TBST) for 1 h, incubated overnight with mouse anti-human p27 (1:1000, Clone 57, BD Transduction Labs) or mouse anti-human p45/Skp2 (1:1000, Clone 8D9, Invitrogen, Grand Island, N.Y.) or rabbit anti-human Caspase-3 antibody (1:500, Clone 8G10, Cell Signaling Technology (Danvers, Mass.)). Purity of the subcellular fractions was confirmed using mouse anti-human α-tubulin (1:10,000, Clone B-5-1-2, Sigma) for cytoplasmic or rabbit anti-human Sp1 (1:1000, Clone H-225, Santa Cruz Biotechnology, Santa Cruz, Calif.) for nuclear fractions. The membranes were incubated with peroxidase-conjugated goat anti-rabbit or goat anti-mouse secondary antibodies in TBST (1:2000; Thermo Scientific).

SCF-Skp2 (Skp2-Cks1) = target: T1, SCF-Skp2 (Skp2-Cks1) (Homo sapiens, UniProt P61024+Q13309); experiment: In vitro ubiquitylation assay, Skp2-mediated p27 ubiquitylation (Wild-Type Cks1); type: biochemical; conditions: 50 μM compound, immunoblot for p27-(Ub)n
T1 construct: made in house; host or cells: cell-free: rabbit reticulocyte lysate (TNT T7 Coupled Reticulocyte Lysate System, Promega) from pcDNA3.1 plasmids
T1 sequence (Q13309 whole entry): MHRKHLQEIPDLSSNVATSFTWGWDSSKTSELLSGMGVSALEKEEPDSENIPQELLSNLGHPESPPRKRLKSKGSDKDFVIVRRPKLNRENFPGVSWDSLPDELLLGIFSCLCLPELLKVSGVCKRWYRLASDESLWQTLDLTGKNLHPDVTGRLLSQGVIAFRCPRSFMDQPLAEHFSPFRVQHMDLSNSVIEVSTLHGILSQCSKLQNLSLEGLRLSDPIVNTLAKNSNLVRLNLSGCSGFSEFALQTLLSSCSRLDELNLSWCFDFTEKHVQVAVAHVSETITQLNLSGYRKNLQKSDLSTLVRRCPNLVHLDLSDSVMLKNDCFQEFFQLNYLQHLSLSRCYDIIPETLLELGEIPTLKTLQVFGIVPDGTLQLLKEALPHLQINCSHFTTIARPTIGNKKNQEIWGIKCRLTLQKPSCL
T1 sequence (P61024 whole entry): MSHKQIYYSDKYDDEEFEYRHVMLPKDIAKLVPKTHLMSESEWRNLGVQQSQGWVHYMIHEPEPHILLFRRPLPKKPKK
T1 sequence (P63208 whole entry partner): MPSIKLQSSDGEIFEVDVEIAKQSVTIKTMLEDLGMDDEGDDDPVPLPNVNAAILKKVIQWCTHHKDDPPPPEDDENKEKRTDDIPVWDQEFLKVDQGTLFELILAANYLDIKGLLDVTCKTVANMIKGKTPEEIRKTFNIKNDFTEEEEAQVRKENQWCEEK
T1 sequence (Q13616 whole entry partner): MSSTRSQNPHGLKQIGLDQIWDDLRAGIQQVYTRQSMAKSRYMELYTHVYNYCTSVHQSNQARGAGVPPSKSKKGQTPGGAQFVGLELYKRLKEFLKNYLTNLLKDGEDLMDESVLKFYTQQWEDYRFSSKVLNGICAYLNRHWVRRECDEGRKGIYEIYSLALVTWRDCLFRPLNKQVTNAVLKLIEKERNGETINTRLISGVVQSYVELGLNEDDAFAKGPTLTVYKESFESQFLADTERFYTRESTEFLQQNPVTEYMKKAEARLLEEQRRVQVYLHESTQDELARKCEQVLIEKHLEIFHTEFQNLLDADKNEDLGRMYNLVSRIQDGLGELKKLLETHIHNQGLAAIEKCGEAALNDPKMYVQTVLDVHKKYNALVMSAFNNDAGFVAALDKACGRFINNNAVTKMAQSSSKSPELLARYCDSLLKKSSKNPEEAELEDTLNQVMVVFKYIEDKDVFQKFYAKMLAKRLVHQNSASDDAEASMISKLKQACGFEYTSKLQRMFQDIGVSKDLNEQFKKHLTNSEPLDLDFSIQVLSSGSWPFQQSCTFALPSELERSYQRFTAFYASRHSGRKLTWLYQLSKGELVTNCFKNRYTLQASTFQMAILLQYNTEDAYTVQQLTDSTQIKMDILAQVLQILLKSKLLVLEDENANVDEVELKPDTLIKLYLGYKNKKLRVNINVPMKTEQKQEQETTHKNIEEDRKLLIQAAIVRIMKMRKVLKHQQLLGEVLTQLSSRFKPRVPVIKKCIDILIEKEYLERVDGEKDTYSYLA
T1 sequence (P62877 whole entry partner): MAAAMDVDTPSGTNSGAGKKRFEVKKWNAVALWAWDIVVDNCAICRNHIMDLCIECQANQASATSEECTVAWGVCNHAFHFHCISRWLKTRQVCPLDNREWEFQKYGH
Description: The 96 hits were tested in an in vitro ubiquitylation assay driven by in vitro transcribed/translated Skp2, Cks1, and p27 (Sitry et al., “Three Different Binding Sites of Cks1 are Required for p27-ubiquitin Ligation,” J. Biol. Chem. 277:42233-42240 (2002)). Assay sensitivity was established for various criteria (FIG. 1B): Enhanced ubiquitylation with Cks1 (lane 2), kinase activity requirement (lane 3), and responsiveness to known inhibitors of Cullin (lane 5) or Cdk2 (lane 6) activity (Meijer et al., “Biochemical and Cellular Effects of Roscovitine, a Potent and Selective Inhibitor of the Cyclin-dependent Kinases cdc2, cdk2 and cdk5,” Eur. J. Biochem. 243:527-536 (1997); Soucy et al., “An Inhibitor of NEDD8-activating Enzyme as a New Approach to Treat Cancer,” Nature 458:732-736 (2009), which are hereby incorporated by reference in their entirety). Compounds showing at least 50% inhibition of Skp2-mediated p27 ubiquitylation (FIG. 1C) were counter-screened for inactivity against two anti-target E3 ligases: MDM2 and SCF-βTrCP (FIGS. 6A-B). Compounds C1 and C2 were identified from the primary VLS and C16 and C20 were identified from a second VLS (FIG. 2).
In vitro reconstituted assays were performed as previously described (Dorrello et al., “S6K1- and betaTRCP-mediated Degradation of PDCD4 Promotes Protein Translation and Cell Growth,” Science 314:467-471 (2006), which is hereby incorporated by reference in their entirety) with the exceptions of the use of (1) unlabeled proteins (wild-type and mutant Skp2 and Cks1, p27, Flag-βTrCP, and HA-PDCD4) generated by in vitro transcription-translation (TNT T7 Coupled Reticulocyte Lysate System, Promega); (2) chain elongation with non-methylated ubiquitin; and (3) immunoblotting to detect poly-ubiquitylation. The following reagents were obtained from Boston Biochem: UBE1, His-UbcH3, His-UbcH5c, Ubiquitin, and Ubiquitin Aldehyde. Additional reagents include CDK2/CyclinE1 (Sigma-Aldrich), S6K (Invitrogen), Okadaic acid (Sigma), and DMSO (Sigma-Aldrich). For ubiquitin charging, UBE1 (100 nM) and His-UbcH3 (10 ng/μl) were incubated with ubiquitin (2.5 μg/μl), ATP (2 mM), and 10 μM […] of inhibitors or Vehicle control for 60 min at 30° C. Reactions were stopped in nondenaturing 2× Sample Buffer, with the addition of 10% Beta-mercaptoethanol as indicated, and analyzed by Western blotting.

MDM2 = target: T2, MDM2 (Homo sapiens, UniProt Q00987); experiment: MDM2 p53 in vitro ubiquitylation counter-screen; type: biochemical; conditions: 50 μM inhibitor
T2 construct: purchased Boston Biochem
T2 sequence (Q00987 whole entry, species assumed): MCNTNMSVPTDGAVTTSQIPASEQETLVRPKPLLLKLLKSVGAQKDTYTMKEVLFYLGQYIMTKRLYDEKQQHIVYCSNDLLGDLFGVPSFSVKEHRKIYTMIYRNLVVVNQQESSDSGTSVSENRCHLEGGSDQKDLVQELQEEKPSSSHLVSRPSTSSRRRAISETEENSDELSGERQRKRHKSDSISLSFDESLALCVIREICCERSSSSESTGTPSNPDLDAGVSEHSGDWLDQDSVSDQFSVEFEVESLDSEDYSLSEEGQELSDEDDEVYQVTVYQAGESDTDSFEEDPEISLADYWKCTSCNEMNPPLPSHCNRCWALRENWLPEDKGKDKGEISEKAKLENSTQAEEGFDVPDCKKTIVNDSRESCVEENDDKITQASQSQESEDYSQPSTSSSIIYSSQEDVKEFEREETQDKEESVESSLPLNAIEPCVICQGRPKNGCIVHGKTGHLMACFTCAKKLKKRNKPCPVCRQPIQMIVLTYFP
Description: p53 ubiquitylation was carried out with the p53 Ubiquitylation Kit (Boston Biochem) following manufacturers protocol. Immunoblotting was performed using mouse monoclonal p53 (Santa Cruz) and rabbit polyclonal MDM2 (Santa Cruz).

ECC-1 cells = experiment: ECC-1 cytotoxicity (trypan blue exclusion); type: cell-based; conditions: 10 μM, 48 h
501 Mel cells = experiment: Cell cycle FACS analysis, 501 Mel; type: cell-based, human; conditions: shEmpty 501 Mel; 10 μM for 16 hours
Description: Whole cell extracts were prepared and immunoblotted as previously described Dorrello et al., “S6K1- and betaTRCP-mediated Degradation of PDCD4 Promotes Protein Translation and Cell Growth,” Science 314:467-471 (2006), which is hereby incorporated by reference in its entirety. For knockdown of Skp2 or p27, shRNAs were induced with 2 ng/ml doxycycline for 48 hours, with the last 16 hours co-treated with 0.1% Vehicle or 10 μM inhibitors as indicated. For cycloheximide chase, cells were pretreated 16 h with 0.1% Vehicle or 10 μM inhibitors, followed by 20 ng/ml cycloheximide (Sigma) and whole cell extracts collected for each time point. […] Scanning densitometry was performed on immunoblots using Image J software. For cell cycle analysis, cells were treated with 0.1% Vehicle or 10 μM inhibitors for 16 h. 1×10^6 cells were fixed in 70% ethanol for 2 h, treated with 200 μg/ml RNase A (Invitrogen) for 30 minutes, and stained with 20 μg/ml Propidium Iodine (Sigma). All samples were assayed in triplicates. Signal was detected using the Becton Dickson LSRII flow cytometer and cell cycle profiles were analyzed with FloJo.

SMILES | Caspase 3 cleavage (apoptosis) (Caspase 3 in ECC-1 cells) | Inhibition of Skp2-mediated p27 ubiquitylation (SCF-Skp2 (Skp2-Cks1)) | MDM2 activity (p53 poly-ubiquitylation) (MDM2) | Cytotoxicity (ECC-1 cells) | S phase cells (501 Mel cells) | Cell death (ECC-1 cells) [%]
O=C(NN=Cc1cc(Br)cc(Br)c1O)C(=Cc1ccccc1O)NC(=O)c1ccccc1 [Compound C20] | activate caspase 3 to a similar extent as the control | strongly inhibited | not blocked | not cytotoxic | a decrease in S phase cells | –
O=C(O)COc1ccc(C=C2SC(=O)N(CC(=O)c3ccc(Cl)cc3)C2=O)cc1 [Compound C16] | shows cleavage of caspase 3 | active | not blocked | – | a decrease in S phase cells | 77
COC(=O)C1=C(C)N(c2ccc(Br)cc2)C(=O)C1=Cc1ccccc1O [Compound C2] | activate caspase 3 to a similar extent as the control | strongly inhibited | not blocked | not cytotoxic | a decrease in S phase cells | –
O=C(O)COc1ccc(Br)cc1C=C1SC(=S)N(Cc2cccnc2)C1=O [Compound C1] | – | active | not blocked | – | a decrease in S phase cells | –
